# Inconclusive results and toxic doses are left out.
# Tested on: BDF1 mice, P388/ADR leukemia ip, median survival T/C
# Experiment: NCI In Vivo Anticancer Drug Screen. Data for tumor model P388 Leukemia resistant to Adriamycin; NSC 123127, Developed at Scr 06 and 41 (intraperitoneal) in B6D2F1 (BDF1) mice
# Conditions: endpoint: median survival time, higher = longer survival
# Description: The antitumor activity of compounds was measured in mice bearing transplantable tumors. Survival or tumor size were measured and the results are expressed as the measurement made in the treated group (T) divided by the measurement made in the vehicle treated control group (C). The tumor model used in this assay is P388 Leukemia resistant to Adriamycin; NSC 123127, Developed at Scr 06 and 41 (intraperitoneal) in B6D2F1 (BDF1) mice
# [1] = dose: 6.48 mg/kg/injection, schedule: Q04DX003 (ip), vehicle: saline
# [2] = dose: 10.8 mg/kg/injection, schedule: Q04DX003 (ip), vehicle: saline
# [3] = dose: 18.0 mg/kg/injection, schedule: Q04DX003 (ip), vehicle: saline
# [4] = dose: 30.0 mg/kg/injection, schedule: Q04DX003 (ip), vehicle: saline
# [5] = dose: 1.44 mg/kg/injection, schedule: Q04DX003 (ip), vehicle: water
# [6] = dose: 2.4 mg/kg/injection, schedule: Q04DX003 (ip), vehicle: water
smiles,measurement,setting,value
CSCS(=O)C[C@H](CO)NC(=O)/C=C/c1c(C)[nH]c(=O)[nH]c1=O (some centres not stated),T/C,"dose: 0.72 mg/kg/injection, schedule: Q04DX003 (ip), vehicle: saline",88 % of control
same,T/C,"dose: 0.86 mg/kg/injection, schedule: Q04DX003 (ip), vehicle: saline",100 % of control
same,T/C,"dose: 1.2 mg/kg/injection, schedule: Q04DX003 (ip), vehicle: saline",86 % of control
same,T/C,"dose: 1.44 mg/kg/injection, schedule: Q04DX003 (ip), vehicle: saline",114 % of control
same,T/C,"dose: 2.0 mg/kg/injection, schedule: Q04DX003 (ip), vehicle: saline",86 % of control
same,T/C,"dose: 2.4 mg/kg/injection, schedule: Q04DX003 (ip), vehicle: saline",119 % of control
same,T/C,"dose: 173.0 micrograms/kg/injection, schedule: Q01DX009 (ip), vehicle: saline",99 % of control
same,T/C,"dose: 288.0 micrograms/kg/injection, schedule: Q01DX009 (ip), vehicle: saline",99 % of control
same,T/C,"dose: 480.0 micrograms/kg/injection, schedule: Q01DX009 (ip), vehicle: saline",95 % of control
C[n+]1ccc(Nc2ccc(NC(=O)c3ccc(Nc4cc[n+](C)c5ccc(N)cc45)cc3)cc2)cc1,T/C,"dose: 7.2 mg/kg/injection, schedule: Q01DX009 (ip), vehicle: water",163 % of control
COc1cc2cc3c4cc(OC)c(OC)cc4cc[n+]3c(C)c2cc1OC (tested in a mixture with another compound),T/C,"dose: 86.4 mg/kg/injection, schedule: Q04DX003 (ip), vehicle: other",103 % of control
same,T/C,"dose: 144.0 mg/kg/injection, schedule: Q04DX003 (ip), vehicle: other",95 % of control
O=C1c2ccccc2C(=O)c2c(NCCNCCO)ccc(NCCNCCO)c21,T/C,"dose: 13.0 mg/kg/injection, schedule: Q04DX003 (ip), vehicle: saline + alcohol",105 % of control
same,T/C,"dose: 21.6 mg/kg/injection, schedule: Q04DX003 (ip), vehicle: saline + alcohol",104 % of control
same,T/C,"dose: 36.0 mg/kg/injection, schedule: Q04DX003 (ip), vehicle: saline + alcohol",98 % of control
O=P1(N(CCCl)CCCl)NCCCO1 (configuration not stated),T/C,"dose: 108.0 mg/kg/injection, schedule: Q01DX001 (ip), vehicle: saline",476 % of control
same,T/C,"dose: 180.0 mg/kg/injection, schedule: Q01DX001 (ip), vehicle: saline",475 % of control
NC(C/[N+]([O-])=N/O)C(=O)O (configuration not stated),T/C,"dose: 288.0 mg/kg/injection, schedule: Q04DX003 (ip), vehicle: sodium bicarbonate",159 % of control
same,T/C,"dose: 480.0 mg/kg/injection, schedule: Q04DX003 (ip), vehicle: sodium bicarbonate",154 % of control
Nc1ncn(C2OC(CO)C(O)C2O)c(=O)n1 (configuration not stated),T/C,[1],210 % of control
same,T/C,[2],191 % of control
same,T/C,[3],184 % of control
same,T/C,[4],87 % of control
CCC1(O)CC2CN(CCc3c([nH]c4ccccc34)C(C(=O)OC)(c3cc4c(cc3OC)N(C)C3C(O)(C(=O)NCCSSCCNC(=O)C5(O)C(O)C6(CC)C=CCN7CCC8(c9cc(C%10(C(=O)OC)CC%11CN(CCc%12c%10[nH]c%10ccccc%12%10)CC(O)(CC)C%11)c(OC)cc9N(C)C58)C76)C(O)C5(CC)C=CCN6CCC43C65)C2)C1 (configuration not stated),T/C,"dose: 432.0 micrograms/kg/injection, schedule: Q04DX003 (ip), vehicle: saline",111 % of control
same,T/C,"dose: 720.0 micrograms/kg/injection, schedule: Q04DX003 (ip), vehicle: saline",124 % of control
same,T/C,"dose: 2000.0 micrograms/kg/injection, schedule: Q04DX003 (ip), vehicle: saline",116 % of control
CCN(CC)CCNc1ccc(CO)c2sc3ccccc3c(=O)c12,T/C,"dose: 17.3 mg/kg/injection, schedule: Q01DX009 (ip), vehicle: water",93 % of control
same,T/C,"dose: 25.2 mg/kg/injection, schedule: Q01DX009 (ip), vehicle: water",108 % of control
same,T/C,"dose: 28.8 mg/kg/injection, schedule: Q01DX009 (ip), vehicle: water",100 % of control
same,T/C,"dose: 42.0 mg/kg/injection, schedule: Q01DX009 (ip), vehicle: water",117 % of control
same,T/C,"dose: 48.0 mg/kg/injection, schedule: Q01DX009 (ip), vehicle: water",104 % of control
same,T/C,"dose: 70.0 mg/kg/injection, schedule: Q01DX009 (ip), vehicle: water",104 % of control
same,T/C,"dose: 117.0 mg/kg/injection, schedule: Q01DX009 (ip), vehicle: water",88 % of control
CC(CN1CC(=O)NC(=O)C1)N1CC(=O)NC(=O)C1 (configuration not stated),T/C,"dose: 86.4 mg/kg/injection, schedule: Q04DX003 (ip), vehicle: Klucel (hydroxypropylcellulose) (HPC)",106 % of control
same,T/C,"dose: 100.0 mg/kg/injection, schedule: Q04DX003 (ip), vehicle: Klucel (hydroxypropylcellulose) (HPC)",100 % of control
same,T/C,"dose: 108.0 mg/kg/injection, schedule: Q04DX003 (ip), vehicle: Klucel (hydroxypropylcellulose) (HPC)",104 % of control
same,T/C,"dose: 144.0 mg/kg/injection, schedule: Q04DX003 (ip), vehicle: Klucel (hydroxypropylcellulose) (HPC)",122 % of control
same,T/C,"dose: 180.0 mg/kg/injection, schedule: Q04DX003 (ip), vehicle: Klucel (hydroxypropylcellulose) (HPC)",102 % of control
same,T/C,"dose: 200.0 mg/kg/injection, schedule: Q04DX003 (ip), vehicle: Klucel (hydroxypropylcellulose) (HPC)",93 % of control
same,T/C,"dose: 216.0 mg/kg/injection, schedule: Q04DX003 (ip), vehicle: Klucel (hydroxypropylcellulose) (HPC)",107 % of control
same,T/C,"dose: 300.0 mg/kg/injection, schedule: Q04DX003 (ip), vehicle: Klucel (hydroxypropylcellulose) (HPC)",102 % of control
same,T/C,"dose: 400.0 mg/kg/injection, schedule: Q04DX003 (ip), vehicle: Klucel (hydroxypropylcellulose) (HPC)",93 % of control
Cc1c(N)nc([C@H](CC(N)=O)NC[C@H](N)C(N)=O)nc1C(=O)N[C@H](C(=O)N[C@H](C)[C@@H](O)[C@H](C)C(=O)N[C@H](C(=O)NCCc1nc(-c2nc(C(=O)NCCC[S+](C)C)cs2)cs1)[C@@H](C)O)C(OC1OC(CO)C(O)C(O)C1OC1OC(CO)C(O)C(OC(N)=O)C1O)c1cnc[nH]1 (some centres not stated),T/C,"dose: 2.88 mg/kg/injection, schedule: Q01DX009 (ip), vehicle: saline",105 % of control
same,T/C,"dose: 4.8 mg/kg/injection, schedule: Q01DX009 (ip), vehicle: saline",107 % of control
same,T/C,"dose: 6.5 mg/kg/injection, schedule: Q01DX009 (ip), vehicle: saline",110 % of control
same,T/C,"dose: 8.0 mg/kg/injection, schedule: Q01DX009 (ip), vehicle: saline",105 % of control
same,T/C,"dose: 10.8 mg/kg/injection, schedule: Q01DX009 (ip), vehicle: saline",93 % of control
same,T/C,"dose: 13.33 mg/kg/injection, schedule: Q01DX009 (ip), vehicle: saline",103 % of control
same,T/C,"dose: 13.33 mg/kg/injection, schedule: Q04DX003 (ip), vehicle: saline",103 % of control
same,T/C,"dose: 18.0 mg/kg/injection, schedule: Q01DX009 (ip), vehicle: saline",95 % of control
same,T/C,"dose: 22.22 mg/kg/injection, schedule: Q04DX003 (ip), vehicle: saline",110 % of control
same,T/C,"dose: 30.0 mg/kg/injection, schedule: Q01DX009 (ip), vehicle: saline",90 % of control
same,T/C,"dose: 37.0 mg/kg/injection, schedule: Q04DX003 (ip), vehicle: saline",98 % of control
CC[C@]1(O)C[C@H](OC2CC(N(C)C)C(OC3CC(O)C(O)C(C)O3)C(C)O2)c2c(cc3c(c2O)C(=O)c2c(O)ccc(O)c2C3=O)[C@H]1C(=O)OC (some centres not stated),T/C,"dose: 3.46 mg/kg/injection, schedule: Q04DX003 (ip), vehicle: other",106 % of control
same,T/C,"dose: 5.76 mg/kg/injection, schedule: Q04DX003 (ip), vehicle: other",102 % of control
same,T/C,"dose: 9.6 mg/kg/injection, schedule: Q04DX003 (ip), vehicle: other",93 % of control
COc1cccc2c1C(=O)c1c(O)c3c(c(O)c1C2=O)CC(O)(C(=O)CO)CC3OC1CC(N)C(O)C(C)O1 (configuration not stated),T/C,"dose: 1.73 mg/kg/injection, schedule: Q01DX004 (ip), vehicle: water",103 % of control
same,T/C,[1],107 % of control
same,T/C,[2],93 % of control
same,T/C,[3],106 % of control
same,T/C,[4],94 % of control
O=C1N[C@@H]([C@H]2CC[C@H](Cl)CN2)C(=O)N[C@H]1[C@H]1CC[C@H](Cl)CN1,T/C,[5],158 % of control
same,T/C,[6],213 % of control
same,T/C,"dose: 4.0 mg/kg/injection, schedule: Q04DX003 (ip), vehicle: water",221 % of control
same,T/C,"dose: 6.67 mg/kg/injection, schedule: Q04DX003 (ip), vehicle: water",122 % of control
CCC1(O)CC(OC2CC(N(C)C)C(OC3CC4OC5CC(=O)C(C)OC5OC4C(C)O3)C(C)O2)c2c(cc3c(c2O)C(=O)c2c(O)ccc(O)c2C3=O)C1C(=O)OC (configuration not stated),T/C,"dose: 0.86 mg/kg/injection, schedule: Q04DX003 (ip), vehicle: water",112 % of control
same,T/C,"dose: 1.3 mg/kg/injection, schedule: Q04DX003 (ip), vehicle: water",115 % of control
same,T/C,[5],120 % of control
same,T/C,[6],124 % of control
O=NN(CCCl)C(=O)NCCCl,T/C,"dose: 13.0 mg/kg/injection, schedule: Q01DX001 (ip), vehicle: saline + alcohol",169 % of control
same,T/C,"dose: 21.6 mg/kg/injection, schedule: Q01DX001 (ip), vehicle: saline + alcohol",499 % of control
same,T/C,"dose: 36.0 mg/kg/injection, schedule: Q01DX001 (ip), vehicle: saline + alcohol",499 % of control

# — PubChem BioAssay AID182 (DTP/NCI, 2004)
